Laboratory results taken from patent publication US20070254288A1, “Diagnostic methods for pain sensitivity and chronicity and for tetrahydrobiopterin-related disorders” (The General Hospital Corporation, priority 2005, published 2007).
“Also recorded” adds a separate entry of the source. Structures can show the parent of a compound that is named as a salt.

What was measured:
Sprague Dawley rats [1] = assay: Nociceptive thresholds in naïve animals (von Frey, radiant heat); assay type: in vivo, rat
Experimental: (§1) Animals were fully habituated and experiments performed blinded. Threshold for eliciting a withdrawal reflex to graded strength monofilament von Frey hairs (0.0174-20.9 g) was measured to assess mechanical allodynia. To measure cold allodynia, a drop of acetone was applied to the plantar hindpaw, and the time the animal spent licking, shaking or lifting the paw was measured (Tegeder et al., J Neurosci 24:1637-1645 (2004)). Paw withdrawal latency to radiant heat (lamp with 8 V, 50 W) assessed heat evoked pain (Ugo Basile).
(§2) DAHP was dissolved in 1:1 polyethylene glycol (PEG400) and 1×PBS, pH 7.4 (15 mg/ml) and administered i.p. or intrathecally (250 μg/kg/h; 5 μl/h). For all i.t. injections/infusions a spinal catheter (Recathco) was used and implanted as described (Kunz et al., Pain 110:409-418 (2004)). Infusions with an osmotic pump (Alzet). 6R-BH4 in ACSF was injected i.t. (10 μg, single 10 μl injection). N-acetyl-serotonin in 1×PBS pH 7.4 containing 3% ethanol was delivered by i.t. infusion (100 μg/kg/h; 5 μl/h). Control animals received the appropriate vehicle. All drugs from Sigma-Aldrich.

[2] = test system: cultured adult rat DRG neurons; assay: Calcium imaging (fura-2) in cultured adult rat DRG neurons; assay type: cell-based
Experimental: Miniature EPSCs were recorded at −70 mV by whole cell patch clamp in adult rat transverse spinal cord slices (Baba et al., Mol Cell Neurosci 24:818-830 (2003)). Intracellular [Ca]I was measured fluorometrically (ΔF 340/380) in cultured adult DRG neurons loaded with fura-2. 6R-BH4 (0.3-10 μM), DEA-NONOate (50 μM), and L-NAME (10-100 μM) were applied using a multibarrel fast drug delivery system.

Sprague Dawley rats [3] = assay: Spared nerve injury (SNI) model: mechanical (von Frey) and cold (acetone) allodynia; assay type: in vivo, rat; details: SNI
Experimental: (§3) Adult male Sprague Dawley rats (150-200 g, Charles River Laboratories) were used. For the SNI model two branches of the sciatic nerve, the common peroneal and the tibial nerve, were ligated and sectioned distally. For the CCI model the sciatic nerve was constricted with three Dexon 4/0 ligatures. For the SNL model, the L5 spinal nerve was tightly ligated. All surgical procedures were under isoflurane anesthesia. For the Formalin test 50 μl of 5% formaldehyde solution were injected into a hindpaw and flinches were counted per minute up to 60 min. Paw inflammation was induced with 50 μl complete Freund's adjuvant (CFA) injected into a hindpaw. Nociceptive analysis was done blinded, and animals were fully habituated to the room and test cages. Mechanical allodynia was assessed with graded strength monofilament von Frey hairs (0.0174-20.9 gram, log scaled), cold allodynia with the acetone test and heat hyperalgesia with the Hargreaves test. Drugs (Sigma) were injected intraperitoneally or intrathecally through a spinal catheter, osmotic pumps were used for infusion. Control animals received vehicle. L4/5 DRG and spinal cord tissue was processed for QRT-PCR, Western blotting, in situ hybridization and immunofluorescence studies.
as §1, §2
Data are means ±SEM. The number of animals per group was 9-12. Areas under the “effect versus time” curves (AUC) were calculated using the linear trapezoidal rule and compared with Student's t-test or univariate analysis of variance (ANOVA) with subsequent t-tests employing a Bonferroni alpha-correction for multiple comparisons. All other data were analyzed with univariate ANOVA or ANOVA for repeated measurements. P at 0.05 for all tests.

[4] = Observation of general well-being, body weight, gait, activity; assay type: in vivo, rat; details: 100 μg/kg/hr i.t. after SNI
Sprague Dawley rats [5] = assay: CFA-induced paw inflammation: thermal hyperalgesia (Hargreaves); assay type: in vivo, rat; details: single dose 50 mg/kg i.p.; 50 mg/kg
Experimental: as §3, with “Drugs (Sigma) were injected intraperitoneally or intrathecally through a spinal catheter, osmotic pumps were used for infusion. Control animals received vehicle. L4/5 DRG and spinal cord tissue was processed for QRT-PCR, Western blotting, in situ hybridization and immunofluorescence studies.” left out
For the Formalin test 50 μl of 5% formaldehyde solution were injected into one hindpaw and flinches were counted per minute up to 60 min. […]
as §1
Data are means ±SEM. […] Areas under the “effect versus time” curves (AUC) were calculated using the linear trapezoidal rule and compared with Student's t-test or univariate analysis of variance (ANOVA) with subsequent t-tests employing a Bonferroni alpha-correction for multiple comparisons. All other data were analyzed with univariate ANOVA or ANOVA for repeated measurements. […]

[6] = test system: BH4 synthesis (GTP cyclohydrolase activity); assay: Tissue concentrations of neopterin and biopterin in L4/5 DRGs (LC/MS-MS); assay type: in vivo, rat; details: seven days after SNI
Experimental: Homogenized tissue was oxidized with iodine, and pteridines were extracted on Oasis MCX cartridges. Concentrations of total biopterin, neopterin, and the internal standard rhamnopterin were determined by LC/MS-MS. LC analysis under gradient conditions on a Nucleosil C8 column; MS-MS analyses on an API 4000 Q TRAP triple quadrupole mass spectrometer. Precursor-to-product ion transitions of m/z 236→192 for biopterin, m/z 252→192 for neopterin, m/z 265→192 for rhamnopterin were used for the MRM. Linearity from 0.1-50 ng/ml. The coefficient of correlation for all measured sequences was at least 0.99. The intra-day and inter-day variability was <10%.

biopterin = assay: Forskolin stimulation of whole blood from healthy volunteers: biopterin; assay type: cell-based, human; details: 10 μM, 24 h
Source text: FIGS. 14C-14F show the effect of forskolin on patient white blood cells. […] White bars unstimulated; grey after stimulation. […] Results represent means with SEM.

Question: Which “latency of pain production” value (Sprague Dawley rats [1]; rat, in vivo) does the source give for `C[C@H](O)[C@H](O)[C@H]1CNc2nc(N)[nH]c(=O)c2N1` [6R-BH4, (6R)-5,6,7,8-tetrahydrobiopterin dihydrochloride] here?
Answer: < 30 min

Question: And the “recorded cells with increased intracellular calcium” value ([2]; 0.3-10 μM, n=95)?
Answer: 67%

Question: Which intracellular calcium increase ([2]; 50 μM, n=32, compared with BH4) does the source give for `CCN(CC)/[N+]([O-])=N/O.CCNCC` [DEA-NONOate] here?
Answer: produced similar increases

Question: Which “BH4 mediated increase in [Ca2+]I” value ([2]; 50 μM) does the source give for `COC(=O)[C@@H](N)CCCNC(=N)N[N+](=O)[O-]` [L-NAME] here?
Answer: significantly reduced the BH4 mediated increase

Question: What about the “DEA-NONOate induced increase of [Ca2+]I” value ([2]; L-NAME 50 μM, DEA-NONOate 50 μM) of the same compound?
Answer: has no effect

Question: And the “reduction of the BH4 effect on intracellular calcium” value ([2]; n=29, p<0.01)?
Answer: 47±4%

Question: And the “mechanical and cold allodynia” value (Sprague Dawley rats [3]; 25 mg/kg i.p., 25 mg/kg)?
Answer: significant effects for von Frey and acetone responses; also recorded: reduced SNI-evoked mechanical and cold allodynia

Question: What does the source list for `CC(=O)NCCc1c[nH]c2ccc(O)cc12` [NAS, N-acetyl-serotonin]?
Answer: overt adverse effects [4]: without overt adverse effects; thermal hyperalgesia (Sprague Dawley rats [5]): significantly reduces thermal hyperalgesia; mechanical and cold allodynia (Sprague Dawley rats [3]; 100 μg/kg/h i.t. infusion 14 days): significantly reduced mechanical and cold allodynia; also recorded: significantly reduces nerve-injury evoked mechanical and cold allodynia; total biopterin levels in L4/5 DRGs [6]: reduced biopterin levels; also recorded: significantly reduces total biopterin levels

Question: What does the source list for `C=C[C@@]1(C)CC(=O)[C@]2(O)[C@@]3(C)[C@@H](O)CCC(C)(C)[C@@H]3[C@H](O)[C@H](OC(C)=O)[C@@]2(C)O1` [forskolin]?
Answer: biopterin increase in whole blood (biopterin; homozygous carriers of the haplotype): 20%; biopterin increase in whole blood (biopterin; non-carriers): about 60%

Question: For `Nc1nc2ncc([C@H](O)[C@H](O)CO)nc2c(=O)[nH]1` [neopterin], which “mechanical and thermal pain sensitivity” value (Sprague Dawley rats [1]; naïve rats, i.t. 10 μg, 10 μl) is on record?
Answer: had no effect on mechanical and thermal pain sensitivity; also recorded: had no significant effect
